Results as given in PubChem BioAssay AID2060897 (Molecular Pharmacology Branch, DTP, NCI, 2025).

Test system: 966289-007-R4-J1-PDC complex spheroid viability
Assay: Anticancer human tumor 966289-007-R4-J1-PDC patient-derived pancreatic adenocarcinoma cell line growth inhibition [RAS]
Conditions: for IC50: curve of first compound; for viability, T/C: stronger effect = lower value; active means viability on the fitted dose curve at most 10% of control; inactive means the rest
Outline: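 Multi-cell-type spheroids: tumor cells plus HUVEC endothelial cells and mesenchymal stem cells. RAS-pathway inhibitors were combined with targeted agents, each dosed in half-log steps down from clinical Cmax, or from 10 microM when Cmax was unknown.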

[1] = second compound 0.000949 µM, first compound 0.00316 µM
[2] = second compound 0.000949 µM, first compound 0.01 µM
[3] = second compound 0.000949 µM, first compound 0.0316 µM
[4] = second compound 0.000949 µM, first compound 0.1 µM
[5] = second compound 0.000949 µM, first compound 0.316 µM
[6] = second compound 0.000949 µM, first compound 1 µM
[7] = second compound 0.003 µM, first compound 0.00316 µM
[8] = second compound 0.003 µM, first compound 0.01 µM
[9] = second compound 0.003 µM, first compound 0.0316 µM
[10] = second compound 0.003 µM, first compound 0.1 µM
[11] = second compound 0.003 µM, first compound 0.316 µM
[12] = second compound 0.003 µM, first compound 1 µM
[13] = second compound 0.00949 µM, first compound 0.00316 µM
[14] = second compound 0.00949 µM, first compound 0.01 µM
[15] = second compound 0.00949 µM, first compound 0.0316 µM
[16] = second compound 0.00949 µM, first compound 0.1 µM
[17] = second compound 0.00949 µM, first compound 0.316 µM
[18] = second compound 0.00949 µM, first compound 1 µM
[19] = second compound 0.03 µM, first compound 0.00316 µM
[20] = second compound 0.03 µM, first compound 0.01 µM
[21] = second compound 0.03 µM, first compound 0.0316 µM
[22] = second compound 0.03 µM, first compound 0.1 µM
[23] = second compound 0.03 µM, first compound 0.316 µM
[24] = second compound 0.03 µM, first compound 1 µM
[25] = second compound 0.0949 µM, first compound 0.00316 µM
[26] = second compound 0.0949 µM, first compound 0.01 µM
[27] = second compound 0.0949 µM, first compound 0.0316 µM
[28] = second compound 0.0949 µM, first compound 0.1 µM
[29] = second compound 0.0949 µM, first compound 0.316 µM
[30] = second compound 0.0949 µM, first compound 1 µM
[31] = second compound 0.3 µM, first compound 0.00316 µM
[32] = second compound 0.3 µM, first compound 0.01 µM
[33] = second compound 0.3 µM, first compound 0.0316 µM
[34] = second compound 0.3 µM, first compound 0.1 µM
[35] = second compound 0.3 µM, first compound 0.316 µM
[36] = second compound 0.3 µM, first compound 1 µM
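Further: spheroids exposed to agents for one week before readout.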
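Wherever viability, T/C is given: percent viability relative to DMSO vehicle control wells as 100%.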

C=CC(=O)N1CCN(c2nc(OCC3CCCN3C)nc3c(F)c(-c4nc(N)cc(C)c4C(F)(F)F)c(Cl)cc23)C(C)C1 (stereo not drawn) + CCn1c(-c2cc(N3CCN(C)CC3)cnc2C(C)OC)c2c3cc(ccc31)-c1csc(n1)CC(NC(=O)C1CC1C)C(=O)N1CCCC(N1)C(=O)OCC(C)(C)C2
> 1000 nM: IC50 (second compound 0.000949 µM) | IC50 (second compound 0.003 µM) | IC50 (second compound 0.00949 µM) | IC50 (second compound 0.03 µM) | IC50 (second compound 0.0949 µM) | IC50 (second compound 0.3 µM)
inactive: viability, T/C [1] 131% | viability, T/C [2] 119% | viability, T/C [3] 138% | viability, T/C [4] 69.5% | viability, T/C [5] 77.9% | viability, T/C [6] 94.2% | viability, T/C [7] 115% | viability, T/C [8] 138% | viability, T/C [9] 83.6% | viability, T/C [10] 78.6% | viability, T/C [11] 85.3% | viability, T/C [12] 86.1% | viability, T/C [13] 101% | viability, T/C [14] 111% | viability, T/C [15] 105% | viability, T/C [16] 74.1% | viability, T/C [17] 90.3% | viability, T/C [18] 94.4% | viability, T/C [19] 80.2% | viability, T/C [20] 124% | viability, T/C [21] 108% | viability, T/C [22] 82% | viability, T/C [23] 110% | viability, T/C [24] 87.7% | viability, T/C [25] 102% | viability, T/C [26] 128% | viability, T/C [27] 98.3% | viability, T/C [28] 104% | viability, T/C [29] 125% | viability, T/C [30] 103% | viability, T/C [31] 79% | viability, T/C [32] 137% | viability, T/C [33] 128% | viability, T/C [34] 97.8% | viability, T/C [35] 135% | viability, T/C [36] 106%

CC1(C)CCC(Nc2ncc(C(F)(F)F)c(-c3c[nH]c4c(P(C)(C)=O)c(C#N)ccc34)n2)CN1 (stereo not drawn) + CCn1c(-c2cc(N3CCN(C)CC3)cnc2C(C)OC)c2c3cc(ccc31)-c1csc(n1)CC(NC(=O)C1CC1C)C(=O)N1CCCC(N1)C(=O)OCC(C)(C)C2
7.53 nM: IC50 (second compound 0.03 µM)
6.14 nM: IC50 (second compound 0.3 µM)
active: viability, T/C (second compound 0.003 µM, first compound 0.0949 µM) 10.7% | viability, T/C (second compound 0.003 µM, first compound 0.3 µM) 9.36%
6.91 nM: IC50 (second compound 0.000949 µM)
7.39 nM: IC50 (second compound 0.0949 µM)
6.78 nM: IC50 (second compound 0.003 µM)
6.97 nM: IC50 (second compound 0.00949 µM)
inactive: viability, T/C (second compound 0.000949 µM, first compound 0.000949 µM) 124% | viability, T/C (second compound 0.000949 µM, first compound 0.003 µM) 104% | viability, T/C (second compound 0.000949 µM, first compound 0.00949 µM) 29% | viability, T/C (second compound 0.000949 µM, first compound 0.03 µM) 14.5% | viability, T/C (second compound 0.000949 µM, first compound 0.0949 µM) 8.71% | viability, T/C (second compound 0.000949 µM, first compound 0.3 µM) 9.97% | viability, T/C (second compound 0.003 µM, first compound 0.000949 µM) 134% | viability, T/C (second compound 0.003 µM, first compound 0.003 µM) 99.9% | viability, T/C (second compound 0.003 µM, first compound 0.00949 µM) 29.9% | viability, T/C (second compound 0.003 µM, first compound 0.03 µM) 8.54% | viability, T/C (second compound 0.00949 µM, first compound 0.000949 µM) 130% | viability, T/C (second compound 0.00949 µM, first compound 0.003 µM) 116% | viability, T/C (second compound 0.00949 µM, first compound 0.00949 µM) 26% | viability, T/C (second compound 0.00949 µM, first compound 0.03 µM) 14.3% | viability, T/C (second compound 0.00949 µM, first compound 0.0949 µM) 12.3% | viability, T/C (second compound 0.00949 µM, first compound 0.3 µM) 11.2% | viability, T/C (second compound 0.03 µM, first compound 0.000949 µM) 113% | viability, T/C (second compound 0.03 µM, first compound 0.003 µM) 115% | viability, T/C (second compound 0.03 µM, first compound 0.00949 µM) 34% | viability, T/C (second compound 0.03 µM, first compound 0.03 µM) 16.7% | viability, T/C (second compound 0.03 µM, first compound 0.0949 µM) 12.3% | viability, T/C (second compound 0.03 µM, first compound 0.3 µM) 10.1% | viability, T/C (second compound 0.0949 µM, first compound 0.000949 µM) 122% | viability, T/C (second compound 0.0949 µM, first compound 0.003 µM) 139% | viability, T/C (second compound 0.0949 µM, first compound 0.00949 µM) 27.6% | viability, T/C (second compound 0.0949 µM, first compound 0.03 µM) 12.7% | viability, T/C (second compound 0.0949 µM, first compound 0.0949 µM) 13.7% | viability, T/C (second compound 0.0949 µM, first compound 0.3 µM) 9.77% | viability, T/C (second compound 0.3 µM, first compound 0.000949 µM) 128% | viability, T/C (second compound 0.3 µM, first compound 0.003 µM) 86.9% | viability, T/C (second compound 0.3 µM, first compound 0.00949 µM) 27.7% | viability, T/C (second compound 0.3 µM, first compound 0.03 µM) 12.8% | viability, T/C (second compound 0.3 µM, first compound 0.0949 µM) 12.7% | viability, T/C (second compound 0.3 µM, first compound 0.3 µM) 11.7%

C=CC(=O)Nc1cc(Nc2nccc(-c3cn(C)c4ccccc34)n2)c(OC)cc1N(C)CCN(C)C + CCn1c(-c2cccnc2C(C)OC)c2c3cc(ccc31)N1CCOC(CC(NC(=O)C(C(C)C)N(C)C(=O)C3(F)CCN(C(=O)C#CC(C)(C)N(C)C)CC3)C(=O)N3CCCC(N3)C(=O)OCC(C)(C)C2)C1
> 1000 nM: IC50 (second compound 0.000949 µM) | IC50 (second compound 0.003 µM) | IC50 (second compound 0.00949 µM) | IC50 (second compound 0.03 µM) | IC50 (second compound 0.0949 µM) | IC50 (second compound 0.3 µM)
inactive: viability, T/C [1] 101% | viability, T/C [2] 101% | viability, T/C [3] 99.9% | viability, T/C [4] 56.5% | viability, T/C [5] 77.5% | viability, T/C [6] 67.8% | viability, T/C [7] 106% | viability, T/C [8] 84.3% | viability, T/C [9] 82.1% | viability, T/C [10] 56.4% | viability, T/C [11] 55.1% | viability, T/C [12] 61.9% | viability, T/C [13] 87% | viability, T/C [14] 97% | viability, T/C [15] 90.8% | viability, T/C [16] 66.4% | viability, T/C [17] 78.5% | viability, T/C [18] 78.4% | viability, T/C [19] 65% | viability, T/C [20] 90% | viability, T/C [21] 99.3% | viability, T/C [22] 69.8% | viability, T/C [23] 92.7% | viability, T/C [24] 77.5% | viability, T/C [25] 76.9% | viability, T/C [26] 93.5% | viability, T/C [27] 117% | viability, T/C [28] 67.8% | viability, T/C [29] 113% | viability, T/C [30] 67.7% | viability, T/C [31] 81.5% | viability, T/C [32] 107% | viability, T/C [33] 111% | viability, T/C [34] 101% | viability, T/C [35] 108% | viability, T/C [36] 90.8%

O=C(c1ccc(F)c(F)c1Nc1ccc(I)cc1F)N1CC(O)([C@@H]2CCCCN2)C1 + CCn1c(-c2cccnc2C(C)OC)c2c3cc(ccc31)N1CCOC(CC(NC(=O)C(C(C)C)N(C)C(=O)C3(F)CCN(C(=O)C#CC(C)(C)N(C)C)CC3)C(=O)N3CCCC(N3)C(=O)OCC(C)(C)C2)C1
661 nM: IC50 (second compound 0.3 µM)
> 1000 nM: IC50 (second compound 0.000949 µM) | IC50 (second compound 0.003 µM) | IC50 (second compound 0.0949 µM)
848 nM: IC50 (second compound 0.03 µM)
940 nM: IC50 (second compound 0.00949 µM)
inactive: viability, T/C [1] 95.6% | viability, T/C [2] 94.9% | viability, T/C [3] 102% | viability, T/C [4] 84.4% | viability, T/C [5] 78.9% | viability, T/C [6] 60.3% | viability, T/C [7] 76.5% | viability, T/C [8] 82.9% | viability, T/C [9] 99.5% | viability, T/C [10] 79.5% | viability, T/C [11] 86.1% | viability, T/C [12] 59.4% | viability, T/C [13] 79.6% | viability, T/C [14] 84.6% | viability, T/C [15] 85.2% | viability, T/C [16] 89% | viability, T/C [17] 83.9% | viability, T/C [18] 48.1% | viability, T/C [19] 72.8% | viability, T/C [20] 86.5% | viability, T/C [21] 101% | viability, T/C [22] 74.1% | viability, T/C [23] 84.1% | viability, T/C [24] 44.3% | viability, T/C [25] 88% | viability, T/C [26] 83.3% | viability, T/C [27] 99.1% | viability, T/C [28] 82.5% | viability, T/C [29] 72.6% | viability, T/C [30] 56% | viability, T/C [31] 89.4% | viability, T/C [32] 78.5% | viability, T/C [33] 84.2% | viability, T/C [34] 82.9% | viability, T/C [35] 62.9% | viability, T/C [36] 42.8%
